Data reported in ChEMBL document CHEMBL1782033, “Dimeric prenylated C6-C3 compounds from the stem bark of Illicium oligandrum” (2011).

Assay: Antiinflammatory activity in rat Polymorphonuclear leukocytes assessed as inhibition of platelet-activating factor-induced beta-glucuronidase release at 10 uM
Type: functional

Row | Compound | inhibition at 10 µM [%]
1 | C[C@@H]1C(=O)O[C@H]2[C@H](O)[C@@]34[C@H]5C[C@@H](C(C)(C)C)[C@]36[C@@H](OC(=O)[C@@H]6O)O[C@@]4(C(=O)O5)[C@@]12O [GINKOLIDE B] | 83.5
2 | C=CC[C@]1(O)C(=O)C=C2O[C@H](C(C)(C)O)C[C@@]23[C@@H]2C(=O)[C@@](O)(CC=C)[C@@H](C4=C2OC(C)(C)[C@H](O)C4)[C@H]31 [ILLICIDIONE A] | 38.2
3 | C=CCC1=C[C@]2(O)C[C@H](C(C)(C)O)OC2=C(CC2=C3O[C@@H](C(C)(C)O)C[C@@]3(O)C=C(CC=C)C2=O)C1=O [ILLICIDIONE B] | 18.6
4 | C=CC[C@H]1C[C@]2(O)C[C@H](C(C)(C)O)OC2=C(CC2=C3O[C@@H](C(C)(C)O)C[C@@]3(O)C[C@H](CC=C)C2=O)C1=O [ILLICIDIONE C] | 25.3
